From article PMC9503133, “In Vitro Release, Mucosal Permeation and Deposition of Cannabidiol from Liquisolid Systems: The Influence of Liquid Vehicles” (Pharmaceutics, 2022)
“And” between values parts separate entries of the source, which are not always exact repeats. Equal entries are not always repeated. Where two headings read alike, the source gives them in different places. Marks after values point to notes of the source that are not given here.

Experiments:
[1] = design: method as in PMID 34774694, PMID 32882367; settings: ref [3],[4]; cited from earlier work
[2] = CBD solubility in liquid vehicles (excess CBD, shaking 24 h, HPLC); assay type: physicochemical
Method: The solubility of CBD in the investigated liquids was examined by adding the excess mass of CBD into 1 g of each test liquid in a test tube. The mixture was sonicated (1 h) using an ultrasonicator (Model LUC-405, Daihan Labtech Co., Ltd., Namyangju-si, Korea) and agitated constantly (37 ± 0.5 °C, 24 h) using a shaking water bath (Model LSB-030S, Daihan Labtech Co., Ltd., Namyangju-si, Korea), and the supernatant was filtered through a 0.45 μm syringe filter. The obtained filtrate was weighed, diluted and quantified by HPLC assay. The CBD solubility in the terms of the mg of CBD per g of liquid was calculated.
The amount of CBD was assessed using a modified HPLC method. An Agilent series 1260 combined with an Agilent ZORBAX Eclipse Plus column (C18, 100 × 4.6 mm, 3.5 μm) (Agilent Technologies, Inc., Santa Clara, CA, USA.) was used. The chromatographic separation was attained in 10 min using an isocratic protocol with a mixture of water:acetonitrile (30:70 v/v) comprising 0.1% formic acid set at a 1.5 mL/min flow rate. The injection volume was 20 µL. The column temperature was set at 45 °C, while the UV detector was set to 220 nm.

[3] = cited from earlier work

## C=C(C)[C@@H]1CCC(C)=C[C@H]1c1c(O)cc(CCCCC)cc1O [CBD, Cannabidiol]
[1]
  calculated log n-octanol–water partition coefficient (Kow): 8 and ~ 8
[2]; in CM, 37 ± 0.5 °C
  CBD Solubility: 386.77 ± 48.85 ^b mg/g
[2]; in DEGEE, 37 ± 0.5 °C
  CBD Solubility: 579.46 ± 11.79 ^a mg/g
[2]; in EtOH, 37 ± 0.5 °C
  CBD Solubility: >1000 mg/g
[2]; in OM, 37 ± 0.5 °C
  CBD Solubility: 540.31 ± 4.59 ^a mg/g
[2]; in P20, 37 ± 0.5 °C
  CBD Solubility: 261.73 ± 39.33 ^c mg/g
[2]; in PEG, 37 ± 0.5 °C
  CBD Solubility: 342.18 ± 49.90 ^b mg/g
[2]; in PG, 37 ± 0.5 °C
  CBD Solubility: 521.04 ± 55.42 ^a mg/g
[2]; in glycerin, 37 ± 0.5 °C
  CBD Solubility: 0.09 ± 0.03 ^d mg/g
[2]; simulated saliva fluid (SSF), simulated saliva fluid pH 6.8, read-out: solubility of CBD in pH 6.8 SSF
  solubility at 24 h: < 5 µg/mL
[2]; water, converted with the specific gravity of water, read-out: CBD solubility in water
  solubility at 24 h: < 5 µg/mL
[3]; 50% EtOH receiver medium, ref Casirahi et al. [44]
  solubility of CBD in 50% EtOH: 2200 ± 100 µg/mL
[3]; ref [3],[4]
  water solubility: 5 ppm
